Data on 24 compounds can be found in patent US10800752B2, “Substituted naphtho[2,3-b]furans as water-soluble prodrugs for preventing and/or treating cancer” (BOSTON BIOMEDICAL, INC., priority 2015, dated 2020).

Counter-ions that a name gives are not always drawn.

Data set [1] can be described thus: Evaluation of a conversion rate to 2-acetylnaphtho[2,3-b]furan-4,9-dione in human plasma. The following applies: Human plasma, 1 umol/L, 37° C., incubation time 120 min. The data set is classed as in vitro ADME. The procedure:
(§1) For test compounds, the decrease rate of the test compounds and the conversion rate thereof to 2-acetylnaphtho[2,3-b]furan-4,9-dione in human plasma, CD1 mouse plasma, and pH 7.4 phosphate buffer solution were measured.
(§2) Test compounds were incubated at the concentration of 1 umol/L in human plasma (cat. no. 12250210, COSMO BIO), CD1 mouse plasma (cat. no. AP3054, KAC), and phosphate buffer solution at 37° C., and removed at predetermined times (0, 5, 10, 30, 60, and 120 minutes). After protein-removing treatment was performed, they are analyzed with LC-MS. It should be noted that the protein-removing treatment used acetonitrile containing: 10% volume of 1 mol/L hydrochloric acid; 1% volume of 46% citric acid; and phenytoin as an internal standard.
(§3) The measurement condition of LC-MS is as described below. LC-MS condition column: Kinetex 2.6 u PFP 100 A 50×2.1 mm Column temperature: 40° C.
(§4) Mobile phase: A: 0.1% formic acid-containing water
(§5) • B: 0.1% formic acid-containing acetonitrile A/B(min): 95/5(0)→5/95(3)→5/95(4)→95/5(4.1)→95/5(6) Flow rate: 0.4 mL/min Detection: ESI (positive mode) Injection volume: 10 uL
In the same way as Example 6, the incubation time was set as 120 minutes later, and the conversion rate of each of various test compounds to 2-acetylnaphtho[2,3-b]furan-4,9-dione in human plasma, CD1 mouse plasma, and pH 7.4 phosphate buffer solution was measured.

A short description of data set [2]: Evaluation of a conversion rate to 2-acetylnaphtho[2,3-b]furan-4,9-dione in pH 7.4 phosphate buffer solution. In kind it is physicochemical. To be noted: Phosphate buffer solution (pH 7.4), 1 umol/L, 37° C., incubation time 120 min. The procedure:
as §1, §2, §3, §4, §5
Measurement values are calculated from the peak area ratio in LC-MS between an internal standard material, phenytoin and an active form, 2-acetylnaphtho[2,3-b]furan-4,9-dione, and are expressed in %.
In the same way as Example 6, the incubation time was set as 120 minutes later, and the conversion rate of each of various test compounds to 2-acetylnaphtho[2,3-b]furan-4,9-dione in human plasma, CD1 mouse plasma, and pH 7.4 phosphate buffer solution was measured. A series of the present compounds were confirmed to be converted to 2-acetylnaphtho[2,3-b]furan-4,9-dione in pH 7.4 phosphate buffer solution in addition to human plasma and CD1 mouse plasma. Therefore, a series of the test compounds of the present invention were confirmed to be converted to the activated form via a route other than an enzymatic conversion.

A further data set can be described thus: Solubility test. To be noted: for Solubility in pH 2.0 buffer solution: 50 mmol/L glycine buffer solution (pH 2.0), room temperature, 24 hours shaking.

Method for Solubility test: A water-soluble prodrug was added into 50 mmol/L glycine buffer solution (pH 2.0). After shaking at room temperature for 24 hours, the mixture was filtered through a membrane filter, and then the filtrate was measured with HPLC.
The measurement condition of HPLC is as described below. HPLC condition column: Acquity UPLC BEH C18, 1.7 um, 50×2.1 mm
Mobile phase: A: 0.1% trifluoroacetic acid-containing water

In the case of `CC(=O)c1cc2c(OC(=O)NCCNCCOC(N)=O)c3ccccc3c(OC(=O)NCCNCCOC(N)=O)c2o1.Cl.Cl` [Example 65], the “% Measurement value (conversion rate to 2-acetylnaphtho[2,3-b]furan-4,9-dione)” value (“% Measurement value” below) is on record as 81% in data set [1] and 73% in data set [2]. In addition, in “Solubility test”, the “Solubility in pH 2.0 buffer solution” value is greater than 5.0 mg/mL.

On to `CC(=O)c1cc2c(OC(=O)NCCNCCS(C)(=O)=O)c3ccccc3c(OC(=O)NCCNCCS(C)(=O)=O)c2o1.Cl.Cl` [Example 61], for which the results for the “% Measurement value” value in data set [1] and in data set [2] were 87% and 55%, respectively. The “Solubility in pH 2.0 buffer solution” value in “Solubility test” was 2.5 mg/mL.

Regarding `CC(=O)c1cc2c(OC(=O)NCCCNCCN)c3ccccc3c(OC(=O)NCCCNCCN)c2o1.Cl.Cl` [Example 52], the “% Measurement value” value in data set [1] is on record as 78%; in data set [2], 55%. Besides, the “Solubility in pH 2.0 buffer solution” value in the data set “Solubility test” is reported as greater than 5.0 mg/mL.

As for `CC(=O)c1cc2c(OC(=O)NC3CCCNC3)c3ccccc3c(OC(=O)NC3CCCNC3)c2o1.Cl.Cl` (stereo not shown) [Example 49], the “% Measurement value” value came to 77% in data set [1] and 58% in data set [2]. Moreover, the “Solubility in pH 2.0 buffer solution” value in “Solubility test” is greater than 5.0 mg/mL.

`COC(=O)OCCNCCNC(=O)Oc1c2ccccc2c(OC(=O)NCCNCCOC(=O)OC)c2oc(C(C)=O)cc12.Cl.Cl` [Example 69]: the “% Measurement value” value in data set [1] amounted to 90%; in data set [2], 71%. Moreover, the “Solubility in pH 2.0 buffer solution” value in the data set “Solubility test” is greater than 5.0 mg/mL.

`CC(=O)c1cc2c(OC(=O)NCCNCCN)c3ccccc3c(OC(=O)NCCNCCN)c2o1.Cl.Cl` [Example 46]: the results for the “% Measurement value” value in data set [1] and in data set [2] were 59% and 54%, respectively. Moreover, the “Solubility in pH 2.0 buffer solution” value in “Solubility test” is listed as greater than 5.0 mg/mL.

For `CC(=O)c1cc2c(O)c3ccccc3c(OC(=O)NCCCNCC(=O)NCC(=O)O)c2o1.Cl` [Example 84], the “% Measurement value” value in data set [1] is on record as 42%; in data set [2] it was 31%. Also, the “Solubility in pH 2.0 buffer solution” value in the data set “Solubility test” is greater than 5.0 mg/mL.

For the compound `CC(=O)c1cc2c(OC(=O)NCCCNCCS(=O)(=O)N(C)C)c3ccccc3c(OC(=O)NCCCNCCS(=O)(=O)N(C)C)c2o1.Cl.Cl` [Example 59], the “% Measurement value” value in data set [1] turned out to be 81%; in data set [2], 66%. Further, the “Solubility in pH 2.0 buffer solution” value in the data set “Solubility test” was greater than 5.0 mg/mL.

For the compound `CC(=O)c1cc2c(O)c3ccccc3c(OC(=O)NCCNCCS(=O)(=O)N(C)C)c2o1.Cl` [Example 79], the “% Measurement value” value is 71% in data set [1] and 39% in data set [2]. The “Solubility in pH 2.0 buffer solution” value in the data set “Solubility test” stood at 0.3 mg/mL.

Regarding `CC(=O)c1cc2c(OC(=O)NCCNCC(F)(F)F)c3ccccc3c(OC(=O)NCCNCC(F)(F)F)c2o1.Cl.Cl` [Example 45], the “% Measurement value” value in data set [1] amounted to 84%; in data set [2], 48%. Also, the “Solubility in pH 2.0 buffer solution” value in “Solubility test” is on record as greater than 5.0 mg/mL.

With `CC(=O)c1cc2c(OC(=O)NC3CCNC3)c3ccccc3c(OC(=O)NC3CCNC3)c2o1.Cl.Cl` (stereo not shown) [Example 48], the “% Measurement value” value amounted to 71% in data set [1] and 59% in data set [2]. For the same compound, the “Solubility in pH 2.0 buffer solution” value in the data set “Solubility test” is greater than 5.0 mg/mL.

For the compound `COC(=O)OCCNCCNC(=O)Oc1c2ccccc2c(O)c2cc(C(C)=O)oc12.Cl` [Example 91], the “% Measurement value” value in data set [1] amounted to 61%; in data set [2], 45%. Further, the “Solubility in pH 2.0 buffer solution” value in the data set “Solubility test” amounted to 3.6 mg/mL.

Take `CC(=O)c1cc2c(OC(=O)NCCNC(C)C(=O)O)c3ccccc3c(OC(=O)NCCNC(C)C(=O)O)c2o1.Cl.Cl` (stereo not shown) [Example 50]: the results for the “% Measurement value” value in data set [1] and in data set [2] were 96% and 61%, respectively. Besides, the “Solubility in pH 2.0 buffer solution” value in the data set “Solubility test” is on record as 0.1 mg/mL.

`CCC(NCCNC(=O)Oc1c2ccccc2c(OC(=O)NCCNC(CC)C(=O)O)c2oc(C(C)=O)cc12)C(=O)O.Cl.Cl` (stereo not shown) [Example 51]: the “% Measurement value” value in data set [1] was found to be 70%; in data set [2] it was 55%. Moreover, in the data set “Solubility test”, the “Solubility in pH 2.0 buffer solution” value is reported as 0.1 mg/mL.

On to `CC(=O)c1cc2c(O)c3ccccc3c(OC(=O)NCCNCC(=O)N3CCC3)c2o1.Cl` [Example 85], for which the “% Measurement value” value turned out to be 38% in data set [1] and 37% in data set [2]. Besides, the “Solubility in pH 2.0 buffer solution” value in “Solubility test” came to 4.1 mg/mL.

As to `CC(=O)c1cc2c(OC(=O)NCCCNCCOC(N)=O)c3ccccc3c(OC(=O)NCCCNCCOC(N)=O)c2o1.Cl.Cl` [Example 66], the entries for the “% Measurement value” value in data set [1] and in data set [2] were 59% and 44%, respectively. Moreover, the “Solubility in pH 2.0 buffer solution” value in the data set “Solubility test” is greater than 5.0 mg/mL.

With `CC(=O)c1cc2c(OC(=O)NCCCNCCS(C)(=O)=O)c3ccccc3c(OC(=O)NCCCNCCS(C)(=O)=O)c2o1.Cl.Cl` [Example 60], the “% Measurement value” value in data set [1] was determined as 68%; in data set [2], 39%. Also, the “Solubility in pH 2.0 buffer solution” value in the data set “Solubility test” was greater than 5.0 mg/mL.

On to “Dimethyl 4,4′-((((2-acetylnaphtho[2,3-b]furan-4,9-diyl)bis(oxy))bis(carbonyl))bis-(azanediyl))(2S,2′S)-bis(2-aminobutanoate)dimethanesulfonate salt [Example 104]”, for which the “% Measurement value” value in data set [1] worked out at 82%; in data set [2], 57%. In “Solubility test”, the “Solubility in pH 2.0 buffer solution” value was greater than 5.0 mg/mL.

With `CC(=O)c1cc2c(OC(=O)NCCCNCC(=O)NCC(=O)O)c3ccccc3c(OC(=O)NCCCNCC(=O)NCC(=O)O)c2o1.Cl.Cl` [Example 64], the “% Measurement value” value in data set [1] stood at 57%; in data set [2] it was 40%. Moreover, the “Solubility in pH 2.0 buffer solution” value in “Solubility test” is given as greater than 5.0 mg/mL.

Consider `COC(=O)NCCNCCNC(=O)Oc1c2ccccc2c(O)c2cc(C(C)=O)oc12.Cl` [Example 89], for which the figures for the “% Measurement value” value in data set [1] and in data set [2] were 63% and 58%, respectively. In addition, the “Solubility in pH 2.0 buffer solution” value in the data set “Solubility test” is reported as greater than 5.0 mg/mL.

Take `CC(=O)c1cc2c(O)c3ccccc3c(OC(=O)NCCCNCCOC(N)=O)c2o1.Cl` [Example 88]: the “% Measurement value” value in data set [1] is reported as 27%; in data set [2], 26%. The “Solubility in pH 2.0 buffer solution” value in the data set “Solubility test” turned out to be 3.2 mg/mL.

Take `CC(=O)c1cc2c(OC(=O)NCCNCCF)c3ccccc3c(OC(=O)NCCNCCF)c2o1.Cl.Cl` [Example 43]: the “% Measurement value” value in data set [1] came to 81%; in data set [2], 63%. In addition, the “Solubility in pH 2.0 buffer solution” value in the data set “Solubility test” was greater than 5.0 mg/mL.

With `COC(=O)[C@@H](N)CCNC(=O)Oc1c2ccccc2c(OC(=O)NCC[C@H](N)C(=O)OC)c2oc(C(C)=O)cc12` [Example 108, Dimethyl 4,4′-((((2-acetylnaphtho[2,3-b]furan-4,9-diyl)bis(oxy))bis(carbonyl))bis(azanediyl))(2S,2′S)-bis(2-aminobutanoate)ditrifluoroacetate salt], the “% Measurement value” value in data set [2] was 44%. Also, the “Solubility in pH 2.0 buffer solution” value in the data set “Solubility test” is reported as greater than 5.0 mg/mL.

With `CC(=O)c1cc2c(OC(=O)NCCNCC(=O)O)c3ccccc3c(OC(=O)NCCNCC(=O)O)c2o1` [Example 98, 2,2′-((((((2-acetylnaphtho[2,3-b]furan-4,9-diyl)bis(oxy))bis(carbonyl))bis(azanediyl))bis(ethane-2,1-diyl))bis(azanediyl))diacetic acid 1/3 trifluoroacetate salt monohydrate], the “% Measurement value” value in data set [2] (trifluoroacetate salt monohydrate) came to 66%. The solubility – broadly, how much of the substance goes into solution per volume – at 24 hours in “Solubility test” (pH 2, aqueous buffer, thermodynamic from solid) is greater than 5000 µg/mL.
